Data on two compounds can be found in article PMC8116058, “De novo macrocyclic peptides dissect energy coupling of a heterodimeric ABC transporter by multimode allosteric inhibition” (eLife, 2021).

This data set deals with TmrAB. The protocol: In order to analyze the binding affinity and specificity of CPs to TmrAB, we established a fluorescence polarization assay. Fluorescein-labeled CP^Fs were incubated with increasing concentrations of TmrAB reconstituted in liposomes at a protein-to-lipid ratio of 1:20 (w/w). […] To address whether the CPs recognize a linear or non-linear epitope, we examined the binding of CP^Fs after disrupting the quaternary and tertiary structure of TmrAB complexes by adding anionic detergent SDS.
Figure 2. […] (A, B) Equilibrium binding analysis. Fluorescence anisotropy of CP^Fs (50 nM) was determined at λex/em = 485/520 nm with increasing concentrations of TmrAB which was reconstituted in liposomes. TmrAB concentrations were calculated based on the random (50/50%) orientation in proteoliposomes ([Stefan et al., 2020]). […] The difference in fluorescence polarization was normalized to free (0%) and 100% bound CP^F. Mean values ± SD (n = 3) are shown, and data were analyzed by a one-site binding model. […] Amounts of TmrA in input (I), flow-through (FT), wash fraction (W), and eluate (E) were analyzed by SDS-PAGE and immunoblotting (α-His). […] Bound TmrAB was eluted in SDS loading buffer and analyzed by SDS-PAGE (silver stain). […] TmrAB in input (I), flow-through (FT), washing fraction (W), and eluate (E) was analyzed by SDS-PAGE and immunoblotting (α-His). […] CP^F-TmrAB complexes were analyzed by gel filtration. […]

Positions of bridges follow the written chain, without caps; N, C: chain ends. Non-standard residues stand in square brackets, D forms with d. Residues, ends and D or L forms follow the SMILES beside them. *: point of attachment. 5FAM = O=C1OC2(c3ccc(O)cc3Oc3cc(O)ccc32)c2ccc(C(=O)*)cc21; βAla = NCCC(=O)O

On to `CC[C@H](C)[C@@H]1NC(=O)[C@H](Cc2c[nH]c3ccccc23)NC(=O)[C@H](CC(N)=O)NC(=O)[C@H](C)NC(=O)[C@H](CO)NC(=O)[C@@H]2CCCN2C(=O)[C@H](CC(=O)O)NC(=O)[C@@H](Cc2ccc(O)cc2)NC(=O)CSC[C@@H](C(=O)NCC(=O)N[C@@H](CO)C(=O)NCCC(=O)NCCC(=O)N[C@@H](CCCNC(=N)N)C(=O)N[C@@H](CCCCNC(=O)c2ccc3c(c2)C(=O)OC32c3ccc(O)cc3Oc3cc(O)ccc32)C(N)=O)NC(=O)[C@H]([C@@H](C)O)NC(=O)[C@H](CC(C)C)NC(=O)[C@H](CC(C)C)NC(=O)[C@H](C(C)C)NC(=O)[C@H](CC(C)C)NC1=O` [CP13] ({CH2CO}-[dY]DPSANWILVLLTCGS[βAla][βAla]RK(5FAM)-NH2; thioether N-14; C-terminus assumed), for which the “Isolation of TmrAB from solubilized E. coli membranes” value is recorded as “isolate intact TmrAB complexes”.

`CC(C)[C@@H]1NC(=O)[C@H](Cc2ccccc2)NC(=O)[C@@H]2CCCN2C(=O)[C@H](CC(N)=O)NC(=O)[C@H](Cc2c[nH]c3ccccc23)NC(=O)[C@H](C(C)C)NC(=O)[C@H](Cc2ccc(O)cc2)NC(=O)[C@H](Cc2ccccc2)NC(=O)[C@@H](Cc2ccc(O)cc2)NC(=O)CSC[C@@H](C(=O)NCC(=O)N[C@@H](CO)C(=O)NCCC(=O)NCCC(=O)N[C@@H](CCCNC(=N)N)C(=O)N[C@@H](CCCCNC(=O)c2ccc3c(c2)C(=O)OC32c3ccc(O)cc3Oc3cc(O)ccc32)C(N)=O)NC(=O)[C@H](CCCCN)NC(=O)[C@H](Cc2ccccc2)NC1=O` [CP14] ({CH2CO}-[dY]FYVWNPFVFKCGS[βAla][βAla]RK(5FAM)-NH2; thioether N-12; C-terminus assumed): the “Isolation of TmrAB from solubilized E. coli membranes” value is recorded as “isolate intact TmrAB complexes”.
